Patent US20100222421A1, “Usage of Baicalein in the Preparation of a Pharmaceutical Composition for the Treatment of Traumatic Brain Injury” (National Defense Medical Center, priority 2009, published 2010)

How the values were obtained:
[1] = system: IL-1β mRNA; experiment: Real-time quantitative RT-PCR, IL-1β mRNA after CCI injury; type: in vivo, rat; settings: single-dose 30 mg kg^-1 i.p.; ipsilateral cortex, 6 h after injury; P<0.01
Procedure: A previously described CCI injury procedure was utilized (Chen et al., 2003). Male Sprague-Dawley rats, which have body weight of 250-300 g, were anaesthetized with sodium pentobarbital (i.p.; 50 mgkg^−1; Rhone Merieux, Harlow, UK) and placed in a stereotaxic frame. A 5-mm craniotomy was performed over the left parietal cortex, centered on the coronal suture and 3 mm lateral to the sagittal suture. Considerable care was taken to avoid injury to the underlying dura. Injury was made using a pneumatic piston with a rounded metal tip (2.5 mm diameter) that was angled 22.5° C. to the vertical so that the tip was perpendicular with the brain surface at the centre of the craniotomy. A velocity of 4 ms^−1 and a deformation depth 2 mm below the dura were used. […] Body temperature was monitored throughout the surgery by a rectal probe; temperature was maintained at 37.0±0.5° C. using a heated pad. […] Testing after injury was as follows: (1) real-time quantitative RT-PCR analysis for TNF-α, IL-1β and IL-6 mRNA expression at 6 h post-injury (n=7 for each group); (2) FluoroJade B (FJB) staining, TNF-α, IL-1β and IL-6 immunohistochemistry, as well as ELISA at 24 h post-injury to assess degenerative neurons and to determine cytokine expression (n=7 for each group). […] Approximately 50 mg tissue was collected from the ipsilateral (injured) hemisphere and processed for real-time quantitative RT-PCR. […]

[2] = Body weight after CCI injury; type: in vivo, rat; settings: CCI-injured rats, 30 mg kg^-1 i.p.; P=0.8
Procedure: A previously described CCI injury procedure was utilized (Chen et al., 2003). Male Sprague-Dawley rats, which have body weight of 250-300 g, were anaesthetized with sodium pentobarbital (i.p.; 50 mgkg^−1; Rhone Merieux, Harlow, UK) and placed in a stereotaxic frame. A 5-mm craniotomy was performed over the left parietal cortex, centered on the coronal suture and 3 mm lateral to the sagittal suture. Considerable care was taken to avoid injury to the underlying dura. Injury was made using a pneumatic piston with a rounded metal tip (2.5 mm diameter) that was angled 22.5° C. to the vertical so that the tip was perpendicular with the brain surface at the centre of the craniotomy. A velocity of 4 ms^−1 and a deformation depth 2 mm below the dura were used. The bone flap was immediately replaced and sealed, and the scalp was closed with sutures. Body temperature was monitored throughout the surgery by a rectal probe; temperature was maintained at 37.0±0.5° C. using a heated pad. Rats were placed in a heated cage to maintain body temperature, while recovering from anaesthesia.
Baicalein (30 mg kg^−1) dissolved in 10% dimethyl sulphoxide (0.25-0.3 mL) or a corresponding volume of vehicle (10% dimethyl sulphoxide) was administered i.p. immediately following injury or daily for 4 days (immediately, 25, 49 and 73 h) after injury. […]

## O=c1cc(-c2ccccc2)oc2cc(O)c(O)c(O)c12 [baicalein]
[1]
  IL-1β mRNA level, % of level in vehicle-treated injured rats: 63%
[2]
  body weight, baicalein versus vehicle: no significant difference
